Reference: paper PMC6406258, “The ROMP: A Powerful Approach to Synthesize Novel pH-Sensitive Nanoparticles for Tumor Therapy” (Biomolecules, 2019)
Where two headings read alike, the source gives them in different places.

Assay: Hydrolysis of pro-drugs at biologically relevant pHs (half-lives)
Type: physicochemical
Excerpt: The behaviors of the eight pro-drugs synthesized were then validated by hydrolysis at various biologically relevant pHs: 4.3, 5.0, 6.0 for the pHs that can be found in acidic vesicles at various maturation degrees, and at pH 7.3 for the physiological and neutral pH. As one can see, the R substituent on the phenyl group is highly important for the modulation of the kinetics of the release. In the case of the two hydroxamic acid pro-drugs, the best system appeared to be the di-p-toluyl one (R=Me), with a half-life of 10–20 h at the moderately acidic pH of lysosomes. Other solutions were too stable or rapidly hydrolyzed. In the case of the benzamide drug, the best system was the diphenyl one (R=H). When a group with an electron donating effect was present on the phenyl rings, the benzamide pro-drugs were decomposed very quickly in a time range that limit the accurateness of the kinetic measurements.
The synthesis of pro-drugs (Scheme 1), the determination of the hydrolysis rates of pro-drugs in mildly acidic pH [25, 26], the pro-drug-functionalized macromonomer-PEO-CI994 (17), the pro-drug-functionalized macro-monomer-PEO-SAHA (16), the pro-drug-functionalized macro-monomer-PEO-NODH (15), and the synthesis of the pro-drug functionalized nanoparticles (NPs) (Figure 1), and the biological tests are developed in the supporting information part.

[1] = buffer, pH 4.3, read-out: Half-life (converted)
[2] = buffer, pH 7.3, read-out: Half-life (converted)
[3] = buffer, pH 6.0, read-out: Half-life (converted)
[4] = buffer, pH 5.0, read-out: Half-life (converted)

half-life (pH 4.3, result in words)	half-life (pH 5.0, result in words)	half-life (pH 7.3, result in words)	half-life [1] [h]	half-life [2] [h]	half-life [3] [h]	half-life [4] [h]	half-life (pH 6.0, result in words)	Structure (SMILES)
stable	stable	Stable						C#CCOCCOCCOCCOCCn1cc(C(ONC(=O)/C=C/C(C)=C/C2(C)Oc3cc(N(C)C)ccc3C2=O)(c2ccccc2)c2ccccc2)nn1 (stereo not shown) [Compound 8a]
			20	96	80			C#CCOCCOCCOCCOCCn1cc(C(ONC(=O)CCCCCCC(=O)Nc2ccccc2)(c2ccc(C)cc2)c2ccc(C)cc2)nn1 [Compound 6b]
			0.5	0.567	1.8	1.33		C#CCOCCOCCOCCOCCn1cc(C(ONC(=O)CCCCCCC(=O)Nc2ccccc2)(c2ccc(OC)cc2)c2ccc(OC)cc2)nn1 [Compound 6c]
			< 0.0167		0.167	0.2		C#CCOCCOCCOCCOCCn1cc(C(Nc2ccccc2NC(=O)c2ccc(NC(C)=O)cc2)(c2ccc(C)cc2)c2ccc(C)cc2)nn1 [Compound 7b]
Stable	Stable	Stable					Stable	C#CCOCCOCCOCCOCCn1cc(C(ONC(=O)CCCCCCC(=O)Nc2ccccc2)(c2ccccc2)c2ccccc2)nn1 [Compound 6a]
					48	6.67		C#CCOCCOCCOCCOCCn1cc(C(Nc2ccccc2NC(=O)c2ccc(NC(C)=O)cc2)(c2ccccc2)c2ccccc2)nn1 [Compound 7a]
			< 0.0167		< 0.0833	< 0.0833		C#CCOCCOCCOCCOCCn1cc(C(Nc2ccccc2NC(=O)c2ccc(NC(C)=O)cc2)(c2ccc(OC)cc2)c2ccc(OC)cc2)nn1 [Compound 7c]
